The source made the active and inactive calls.
What was measured:
[1] = tested on: H9c2; test: cells; assay type: functional, cell-based; conditions: Rattus norvegicus, H9c2, Myocardium;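 further: confirmatory concentration-response retest of ultra-high-throughput screening hits for modulation of myocardial damage; cell death induced by hydrogen peroxide oxidative stress; compound pretreatment for 60 min then peroxide exposure for 2 h; potency is for protecting the cells against peroxide damage rather than for killing them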
[2] = bead-based luminescence quenchers, dual-tagged ARNT – biochemical, AlphaScreen, cherry-pick, artefact control for ARNT-TACC3 interaction inhibitor project, dose response (AID 651705); assay type: functional;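 further: AlphaScreen bead proximity signal that flags compounds interfering with the detection technology; potency reflects signal decrease which marks the compound as an assay artifact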
[3] = microbe, parasite or virus in culture; assay type: functional; conditions: Mycobacterium tuberculosis
[4] = target: T1, Low molecular weight phosphotyrosine protein phosphatase (Homo sapiens, UniProt P24666); assay type: functional; conditions: read-out: IC50_Mean
T1 sequence (P24666 whole entry): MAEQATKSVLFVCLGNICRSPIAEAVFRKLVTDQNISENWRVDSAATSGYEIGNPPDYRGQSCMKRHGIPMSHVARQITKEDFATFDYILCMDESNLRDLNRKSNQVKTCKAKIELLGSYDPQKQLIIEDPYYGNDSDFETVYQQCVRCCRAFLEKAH

[5] = target: Potassium voltage-gated channel subfamily KQT member 2 (Rattus norvegicus, UniProt O88943); test: blockers of KCNQ2 channel current – cell-based, automated electrophysiology, set II, rat KCNQ2, dose response (AID 588637); assay type: functional
[6] = target: Mitochondrial peptide methionine sulfoxide reductase (Bos taurus, UniProt P54149); assay type: functional;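 further: absorbance read-out, biochemical high-throughput dose-response screen for MsrA inhibitors, confirmatory; recombinant bovine MsrA coupled to E. coli TrxB with NADPH and selenocystamine; potency is for inhibitors of MsrA activity on DMSO substrate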
Mitochondrial peptide methionine sulfoxide reductase, sequence (P54149 whole entry): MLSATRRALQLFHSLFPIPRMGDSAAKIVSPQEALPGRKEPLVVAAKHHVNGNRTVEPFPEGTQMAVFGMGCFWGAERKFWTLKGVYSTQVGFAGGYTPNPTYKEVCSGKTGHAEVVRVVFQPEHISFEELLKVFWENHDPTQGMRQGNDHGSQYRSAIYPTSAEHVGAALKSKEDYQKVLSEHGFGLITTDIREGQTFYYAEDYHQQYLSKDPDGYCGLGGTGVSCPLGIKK

[7] = target: T2, Aminopeptidase N (Plasmodium falciparum FcB1/Columbia, UniProt O96935); test: malaria alanyl aminopeptidase activity blockers – biochemical, fluorogenic H-Leu-NHMec substrate, 1536-well (AID 1445); set-up: species or system Plasmodium falciparum 3D7, 3D7
T2 sequence (O96935 whole entry): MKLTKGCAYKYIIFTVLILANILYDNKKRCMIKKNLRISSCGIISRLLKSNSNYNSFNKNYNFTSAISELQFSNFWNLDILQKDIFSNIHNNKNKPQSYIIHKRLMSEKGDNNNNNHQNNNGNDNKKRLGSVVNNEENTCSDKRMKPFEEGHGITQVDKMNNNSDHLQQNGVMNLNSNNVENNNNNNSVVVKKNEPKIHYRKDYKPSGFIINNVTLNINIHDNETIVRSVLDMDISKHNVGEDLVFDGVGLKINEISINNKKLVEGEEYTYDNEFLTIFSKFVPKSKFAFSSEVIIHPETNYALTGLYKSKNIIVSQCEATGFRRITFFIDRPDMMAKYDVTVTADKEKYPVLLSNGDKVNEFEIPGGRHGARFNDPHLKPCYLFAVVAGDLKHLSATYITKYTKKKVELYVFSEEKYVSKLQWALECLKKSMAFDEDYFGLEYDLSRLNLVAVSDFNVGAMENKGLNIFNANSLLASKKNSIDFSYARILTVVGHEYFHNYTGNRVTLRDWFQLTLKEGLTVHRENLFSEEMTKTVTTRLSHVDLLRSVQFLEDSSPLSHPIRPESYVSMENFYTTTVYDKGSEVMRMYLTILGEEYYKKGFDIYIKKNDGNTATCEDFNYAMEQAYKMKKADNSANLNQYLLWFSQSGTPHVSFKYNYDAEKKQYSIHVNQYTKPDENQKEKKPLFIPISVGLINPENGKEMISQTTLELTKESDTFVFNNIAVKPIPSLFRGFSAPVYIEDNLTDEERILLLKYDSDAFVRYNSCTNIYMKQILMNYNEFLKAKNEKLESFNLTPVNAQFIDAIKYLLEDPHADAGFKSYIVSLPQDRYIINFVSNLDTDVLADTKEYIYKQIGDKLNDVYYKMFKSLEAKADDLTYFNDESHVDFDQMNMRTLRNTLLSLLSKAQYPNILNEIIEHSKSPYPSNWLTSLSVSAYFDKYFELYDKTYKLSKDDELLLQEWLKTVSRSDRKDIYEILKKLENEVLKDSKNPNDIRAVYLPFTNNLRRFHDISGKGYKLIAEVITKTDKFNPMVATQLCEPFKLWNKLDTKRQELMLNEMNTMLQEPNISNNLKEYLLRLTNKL

[8] = target: T3, ATP-dependent translocase ABCB1 (Homo sapiens, UniProt P08183); test: P-gp JC-1 efflux blockade concentration-response – Jurkat-DNR cells, flow cytometry, set 2, dose response (AID 504569); assay type: functional; conditions: read-out: EC50_MICROM_;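 further: potency of pump inhibitors that raise cellular JC-1 green fluorescence up to the nicardipine level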
T3 sequence (P08183 whole entry): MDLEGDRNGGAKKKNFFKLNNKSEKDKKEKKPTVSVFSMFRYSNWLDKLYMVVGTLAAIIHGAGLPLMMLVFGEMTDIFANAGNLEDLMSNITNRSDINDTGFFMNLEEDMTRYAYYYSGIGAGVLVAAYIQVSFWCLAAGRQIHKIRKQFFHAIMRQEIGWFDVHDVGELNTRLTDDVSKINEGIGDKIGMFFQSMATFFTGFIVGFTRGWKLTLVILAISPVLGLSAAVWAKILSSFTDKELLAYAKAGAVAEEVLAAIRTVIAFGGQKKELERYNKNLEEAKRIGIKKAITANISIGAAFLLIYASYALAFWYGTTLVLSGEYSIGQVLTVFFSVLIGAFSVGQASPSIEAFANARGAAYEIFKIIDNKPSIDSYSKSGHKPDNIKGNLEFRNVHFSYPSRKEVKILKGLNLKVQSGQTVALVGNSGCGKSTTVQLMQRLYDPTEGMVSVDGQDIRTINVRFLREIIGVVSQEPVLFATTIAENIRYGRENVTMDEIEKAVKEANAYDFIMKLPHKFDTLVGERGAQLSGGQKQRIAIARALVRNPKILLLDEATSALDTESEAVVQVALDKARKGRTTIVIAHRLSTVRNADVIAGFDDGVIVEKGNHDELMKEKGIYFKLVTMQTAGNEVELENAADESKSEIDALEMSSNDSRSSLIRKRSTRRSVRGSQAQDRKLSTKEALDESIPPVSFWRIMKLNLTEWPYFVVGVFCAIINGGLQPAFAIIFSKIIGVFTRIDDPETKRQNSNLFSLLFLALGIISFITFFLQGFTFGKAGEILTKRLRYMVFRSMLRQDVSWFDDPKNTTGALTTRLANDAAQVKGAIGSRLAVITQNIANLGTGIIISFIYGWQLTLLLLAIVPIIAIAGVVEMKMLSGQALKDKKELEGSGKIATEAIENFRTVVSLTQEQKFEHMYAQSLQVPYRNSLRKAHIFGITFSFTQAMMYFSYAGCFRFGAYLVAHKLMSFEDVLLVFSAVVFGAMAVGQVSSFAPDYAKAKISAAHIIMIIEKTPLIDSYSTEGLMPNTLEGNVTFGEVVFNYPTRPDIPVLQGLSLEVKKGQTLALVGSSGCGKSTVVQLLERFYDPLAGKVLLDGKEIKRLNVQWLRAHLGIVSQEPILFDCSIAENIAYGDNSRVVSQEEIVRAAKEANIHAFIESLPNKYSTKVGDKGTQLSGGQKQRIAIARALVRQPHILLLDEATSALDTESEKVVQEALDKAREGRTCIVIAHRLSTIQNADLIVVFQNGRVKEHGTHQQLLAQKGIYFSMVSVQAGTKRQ

[9] = target: T3, ATP-dependent translocase ABCB1; test: inhibition of BCRP-mediated JC-1 efflux – Ig-MXP3 cells, flow cytometry, set 2, dose response (AID 504566); assay type: functional; conditions: read-out: EC50_MICROM_;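 further: flow cytometry median green fluorescence of retained JC-1 dye; potency of efflux pump inhibition measured as rising substrate retention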
[10] = target: T4, Interleukin-8 (Homo sapiens, UniProt P10145); test: Dose Response confirmation of uHTS small molecule hits for cystic fibrosis induced NFkb Inhibitors in a PAF-induced IL8 counterscreen.; assay type: functional; conditions: read-out: IC50_Mean
T4 sequence (P10145 whole entry): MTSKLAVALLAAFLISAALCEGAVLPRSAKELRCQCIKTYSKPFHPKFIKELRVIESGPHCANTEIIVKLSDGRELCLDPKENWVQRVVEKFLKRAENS

[11] = target: T4, Interleukin-8; test: Dose Response confirmation of uHTS small molecule hits for cystic fibrosis induced NFkb Inhibitors in a TNFa-induced IL8 counterscreen.; assay type: functional; conditions: read-out: IC50_Mean
[12] = target: T1, Low molecular weight phosphotyrosine protein phosphatase; assay type: functional; conditions: read-out: IC50_Mean; remark: listed apart in the source
[13] = target: Voltage-gated inwardly rectifying potassium channel KCNH2 (Homo sapiens, UniProt Q12809); conditions: Potency;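 further: confirmatory quantitative high-throughput screen measuring inhibition of hERG channel activity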
[14] = target: T5, Replicative DNA helicase DnaB (Mycobacterium tuberculosis, UniProt P9WMR3); test: DnaB intein splicing inhibitors, dose response, biochemical, cell-free fluorescence (AID 449749); assay type: functional
T5 sequence (P9WMR3 whole entry): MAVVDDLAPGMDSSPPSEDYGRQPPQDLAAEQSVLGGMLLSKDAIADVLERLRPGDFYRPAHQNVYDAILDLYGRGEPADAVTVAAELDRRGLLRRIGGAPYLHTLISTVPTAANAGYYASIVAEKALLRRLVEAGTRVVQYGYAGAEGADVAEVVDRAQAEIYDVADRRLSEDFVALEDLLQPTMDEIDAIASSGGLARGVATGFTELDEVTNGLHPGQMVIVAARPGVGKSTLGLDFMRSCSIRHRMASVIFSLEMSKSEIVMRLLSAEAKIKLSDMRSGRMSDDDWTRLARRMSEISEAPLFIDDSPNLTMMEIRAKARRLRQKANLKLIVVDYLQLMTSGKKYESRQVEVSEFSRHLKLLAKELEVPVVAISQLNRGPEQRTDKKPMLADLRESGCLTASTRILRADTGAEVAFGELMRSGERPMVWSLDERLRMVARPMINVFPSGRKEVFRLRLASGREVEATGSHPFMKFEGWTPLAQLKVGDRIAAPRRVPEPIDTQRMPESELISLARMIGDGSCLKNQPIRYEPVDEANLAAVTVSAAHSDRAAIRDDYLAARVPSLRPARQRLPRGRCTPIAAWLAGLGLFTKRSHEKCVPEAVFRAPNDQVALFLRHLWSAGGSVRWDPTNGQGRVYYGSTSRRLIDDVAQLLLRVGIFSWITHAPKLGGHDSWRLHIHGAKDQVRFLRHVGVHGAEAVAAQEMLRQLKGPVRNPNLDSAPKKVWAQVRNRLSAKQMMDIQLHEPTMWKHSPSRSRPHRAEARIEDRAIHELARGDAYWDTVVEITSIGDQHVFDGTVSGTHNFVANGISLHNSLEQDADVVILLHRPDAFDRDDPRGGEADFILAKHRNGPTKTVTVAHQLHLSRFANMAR

[15] = target: Glucose-6-phosphate 1-dehydrogenase (Homo sapiens, UniProt P11413); test: inhibition of Homo sapiens G6PD, dose series – biochemical, fluorescence, selectivity assay for P. falciparum G6PD inhibitor project, dose response (AID 504792); assay type: functional
Glucose-6-phosphate 1-dehydrogenase, sequence (P11413 whole entry): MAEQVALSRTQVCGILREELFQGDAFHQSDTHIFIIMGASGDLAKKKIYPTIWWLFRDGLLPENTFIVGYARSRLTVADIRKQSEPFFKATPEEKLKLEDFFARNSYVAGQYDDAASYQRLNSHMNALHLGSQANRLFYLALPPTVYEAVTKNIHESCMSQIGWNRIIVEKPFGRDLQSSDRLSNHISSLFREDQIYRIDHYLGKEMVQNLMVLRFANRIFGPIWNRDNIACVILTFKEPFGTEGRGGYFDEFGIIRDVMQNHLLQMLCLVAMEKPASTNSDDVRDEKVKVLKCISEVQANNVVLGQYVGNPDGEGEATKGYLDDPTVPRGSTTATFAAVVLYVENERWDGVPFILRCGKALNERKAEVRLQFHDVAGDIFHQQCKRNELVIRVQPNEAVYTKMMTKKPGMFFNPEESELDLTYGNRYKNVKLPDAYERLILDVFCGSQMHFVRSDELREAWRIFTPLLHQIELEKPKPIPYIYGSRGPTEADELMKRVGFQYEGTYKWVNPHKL

[16] = target: Nonstructural protein 1 (Influenza A virus, UniProt Q194T2); assay type: functional, Influenza A virus (A/California/07/2009(H1N1))
[17] = viability loss in THP-1 monocytes – THP-1 cells, cytotoxicity control for Vif-APOBEC3G degradation inhibitor project, dose response (AID 1117359); assay type: functional; conditions: THP-1
[18] = tested on: INS1; test: INS-1E survival protection against cytokine death – cell-based, luminescence, retest, dose response (AID 449756); assay type: functional; conditions: Rattus norvegicus;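 further: cell death triggered by IL-1 beta plus TNF-alpha plus IFN-gamma mixture; protective hits raise ATP signal compared with cytokine alone wells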
[19] = NIH3T3 cell viability loss – ATP luminescence, mouse fibroblasts, counter-screen, dose response (AID 2010); assay type: functional, cell-based;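 further: cells exposed to compound for about 90 hours before reading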
[20] = target: Large T antigen (Simian virus 40, UniProt P03070); assay type: functional, Betapolyomavirus macacae;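 further: Confirmatory-stage PubChem screen for compounds that inhibit SV40 T antigen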
Large T antigen, sequence (P03070 whole entry): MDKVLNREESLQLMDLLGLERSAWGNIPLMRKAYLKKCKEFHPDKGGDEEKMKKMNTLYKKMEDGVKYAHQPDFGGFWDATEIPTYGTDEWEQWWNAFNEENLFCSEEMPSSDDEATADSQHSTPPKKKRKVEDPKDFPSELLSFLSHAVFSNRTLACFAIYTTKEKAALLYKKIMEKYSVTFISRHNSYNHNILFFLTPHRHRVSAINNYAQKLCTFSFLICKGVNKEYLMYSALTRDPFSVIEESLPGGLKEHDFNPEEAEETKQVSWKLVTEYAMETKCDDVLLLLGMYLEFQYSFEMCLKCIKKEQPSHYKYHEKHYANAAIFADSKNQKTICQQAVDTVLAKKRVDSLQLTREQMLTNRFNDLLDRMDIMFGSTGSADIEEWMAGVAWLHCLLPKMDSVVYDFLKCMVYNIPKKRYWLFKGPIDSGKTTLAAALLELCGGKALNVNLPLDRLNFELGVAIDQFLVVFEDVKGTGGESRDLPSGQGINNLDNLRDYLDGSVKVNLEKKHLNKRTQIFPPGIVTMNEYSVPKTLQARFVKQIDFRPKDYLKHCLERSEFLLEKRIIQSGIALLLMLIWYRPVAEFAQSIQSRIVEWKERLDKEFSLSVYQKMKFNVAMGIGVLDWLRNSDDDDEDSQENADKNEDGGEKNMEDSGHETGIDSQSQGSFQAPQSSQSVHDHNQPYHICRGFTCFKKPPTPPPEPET

[21] = Trypanosoma cruzi growth suppression in host cells – NIH3T3 host cells, beta-gal luminescence, confirmation (AID 2044); assay type: functional, cell-based;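 further: intracellular parasites grown in NIH/3T3 mouse fibroblasts as host cells; luminescent beta-galactosidase reporter signal from transgenic T. cruzi replicating inside host cells; inhibitors lower the luminescence signal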
[22] = target: Glutathione-S-transferase (Schistosoma japonicum, UniProt Q26513); test: GST-antibody interaction or FRET quenching – biochemical, TR-FRET, artefact control for Vif-APOBEC3G degradation inhibitor project, dose response (AID 1117362); assay type: functional
Glutathione-S-transferase, sequence (Q26513 whole entry): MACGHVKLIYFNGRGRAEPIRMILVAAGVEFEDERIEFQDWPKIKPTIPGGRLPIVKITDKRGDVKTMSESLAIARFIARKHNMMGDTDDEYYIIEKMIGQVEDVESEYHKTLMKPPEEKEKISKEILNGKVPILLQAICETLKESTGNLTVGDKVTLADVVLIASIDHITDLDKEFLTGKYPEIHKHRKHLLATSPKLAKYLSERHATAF

[23] = target: Aryl hydrocarbon receptor (Homo sapiens, UniProt P35869); conditions: Potency;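 further: confirmatory quantitative high-throughput screen measuring activation of the AhR signaling pathway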
[24] = target: Cytochrome P450 3A4 (Homo sapiens, UniProt P08684); conditions: Potency;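 further: confirmatory qHTS run detecting inhibitors and substrates of CYP3A4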
Cytochrome P450 3A4, sequence (P08684 whole entry): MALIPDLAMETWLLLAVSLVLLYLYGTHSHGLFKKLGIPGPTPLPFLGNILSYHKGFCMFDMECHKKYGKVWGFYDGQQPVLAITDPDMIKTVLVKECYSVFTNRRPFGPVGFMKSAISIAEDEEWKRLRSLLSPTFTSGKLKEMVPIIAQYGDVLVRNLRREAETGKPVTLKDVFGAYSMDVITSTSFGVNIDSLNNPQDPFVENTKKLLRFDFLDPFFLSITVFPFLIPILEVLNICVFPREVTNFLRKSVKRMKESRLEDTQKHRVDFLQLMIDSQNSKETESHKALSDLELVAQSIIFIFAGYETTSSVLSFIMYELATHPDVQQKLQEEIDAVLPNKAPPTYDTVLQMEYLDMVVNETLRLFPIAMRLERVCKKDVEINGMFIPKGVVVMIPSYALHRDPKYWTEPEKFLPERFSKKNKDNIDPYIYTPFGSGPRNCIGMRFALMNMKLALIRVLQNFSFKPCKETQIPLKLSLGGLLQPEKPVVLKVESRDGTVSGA

[25] = target: T6, Protein RecA (Mycobacterium tuberculosis, UniProt P9WHJ3); test: Fluorescence Cell-Free Homogeneous Dose Retest to Identify Inhibitors of RecA-Intein Splicing Activity. [Related pubchem assays (depositor defined):AID2097, AID2223, AID489010, AID492950]; assay type: functional
T6 sequence (P9WHJ3 whole entry): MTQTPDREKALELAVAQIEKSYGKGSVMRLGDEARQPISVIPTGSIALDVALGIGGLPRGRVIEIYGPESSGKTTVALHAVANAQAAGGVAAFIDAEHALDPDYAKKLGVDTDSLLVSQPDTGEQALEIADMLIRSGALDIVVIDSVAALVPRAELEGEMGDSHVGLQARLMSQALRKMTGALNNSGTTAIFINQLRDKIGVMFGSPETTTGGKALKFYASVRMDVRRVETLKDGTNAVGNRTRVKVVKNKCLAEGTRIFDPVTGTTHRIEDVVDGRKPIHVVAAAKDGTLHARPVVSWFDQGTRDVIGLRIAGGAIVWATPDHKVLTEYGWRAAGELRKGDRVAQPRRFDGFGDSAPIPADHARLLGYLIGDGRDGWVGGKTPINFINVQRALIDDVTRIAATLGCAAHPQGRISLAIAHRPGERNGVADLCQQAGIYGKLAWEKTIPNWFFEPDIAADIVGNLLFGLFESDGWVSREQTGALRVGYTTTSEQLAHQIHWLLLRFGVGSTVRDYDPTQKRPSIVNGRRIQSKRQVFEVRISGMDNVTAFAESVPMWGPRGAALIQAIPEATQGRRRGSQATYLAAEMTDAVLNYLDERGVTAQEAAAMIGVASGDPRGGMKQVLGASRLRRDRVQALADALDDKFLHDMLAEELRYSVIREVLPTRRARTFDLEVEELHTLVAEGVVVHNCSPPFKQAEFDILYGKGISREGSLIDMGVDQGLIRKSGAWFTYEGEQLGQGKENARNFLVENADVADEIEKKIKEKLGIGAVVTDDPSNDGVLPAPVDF

[26] = target: Tyrosine-protein phosphatase non-receptor type 5 (Homo sapiens, UniProt P54829); test: PTPN5 enzyme inhibition – biochemical, fluorescence intensity, uHTS hits, confirmation (AID 602372); assay type: functional; conditions: read-out: IC50_Mean
Tyrosine-protein phosphatase non-receptor type 5, sequence (P54829 whole entry): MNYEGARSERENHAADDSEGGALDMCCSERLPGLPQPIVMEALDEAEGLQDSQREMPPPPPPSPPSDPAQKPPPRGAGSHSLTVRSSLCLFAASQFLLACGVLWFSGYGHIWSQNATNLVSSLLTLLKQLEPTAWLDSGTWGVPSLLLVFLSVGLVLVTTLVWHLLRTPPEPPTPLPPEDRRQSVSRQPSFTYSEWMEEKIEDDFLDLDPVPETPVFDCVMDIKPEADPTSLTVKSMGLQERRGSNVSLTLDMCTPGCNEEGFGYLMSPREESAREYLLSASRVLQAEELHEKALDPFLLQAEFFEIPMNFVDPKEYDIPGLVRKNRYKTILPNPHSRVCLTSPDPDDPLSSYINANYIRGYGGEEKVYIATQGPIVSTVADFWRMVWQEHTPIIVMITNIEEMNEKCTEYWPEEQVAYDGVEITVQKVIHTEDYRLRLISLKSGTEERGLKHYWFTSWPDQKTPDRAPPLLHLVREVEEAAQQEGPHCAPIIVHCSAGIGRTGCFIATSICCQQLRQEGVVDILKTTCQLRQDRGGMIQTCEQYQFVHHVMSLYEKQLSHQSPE

[27] = target: Dual specificity protein phosphatase 3 (Homo sapiens, UniProt P51452); test: VHR phosphatase inhibition, dose response, selectivity assay for STEP inhibitor project, biochemical (AID 602374); assay type: functional; conditions: read-out: IC50_Mean
Dual specificity protein phosphatase 3, sequence (P51452 whole entry): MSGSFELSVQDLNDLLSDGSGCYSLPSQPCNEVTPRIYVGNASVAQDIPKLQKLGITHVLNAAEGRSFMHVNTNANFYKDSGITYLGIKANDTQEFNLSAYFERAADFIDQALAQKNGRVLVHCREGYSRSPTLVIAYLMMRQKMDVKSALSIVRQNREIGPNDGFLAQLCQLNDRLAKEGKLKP

[28] = target: Tyrosine-protein phosphatase non-receptor type 11 (Homo sapiens, UniProt Q06124); test: PTPN11 enzyme inhibitors – biochemical, selectivity assay for STEP inhibitor project, dose response (AID 602367); assay type: functional; conditions: read-out: IC50_Mean
Tyrosine-protein phosphatase non-receptor type 11, sequence (Q06124 whole entry): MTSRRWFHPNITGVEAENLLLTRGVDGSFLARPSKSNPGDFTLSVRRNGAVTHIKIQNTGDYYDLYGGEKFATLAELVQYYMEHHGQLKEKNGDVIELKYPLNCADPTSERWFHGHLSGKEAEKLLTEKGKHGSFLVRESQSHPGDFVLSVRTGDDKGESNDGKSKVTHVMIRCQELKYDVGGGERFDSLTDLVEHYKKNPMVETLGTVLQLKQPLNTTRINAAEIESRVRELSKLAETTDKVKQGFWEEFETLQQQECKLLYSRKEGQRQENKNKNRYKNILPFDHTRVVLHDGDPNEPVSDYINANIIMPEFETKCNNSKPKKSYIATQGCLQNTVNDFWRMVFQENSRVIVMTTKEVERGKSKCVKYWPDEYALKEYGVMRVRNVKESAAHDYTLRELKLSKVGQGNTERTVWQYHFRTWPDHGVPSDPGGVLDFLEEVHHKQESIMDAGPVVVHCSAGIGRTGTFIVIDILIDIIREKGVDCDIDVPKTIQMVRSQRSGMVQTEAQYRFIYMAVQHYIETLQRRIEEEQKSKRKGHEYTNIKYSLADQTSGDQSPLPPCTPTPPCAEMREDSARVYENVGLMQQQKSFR

[29] = target: T7, Caspase-6 (Homo sapiens, UniProt P55212); test: inhibition of CASP6 peptide cleavage – biochemical, VEID-R110 fluorescence, cherry-pick, dose response (AID 720632)
T7 sequence (P55212 whole entry): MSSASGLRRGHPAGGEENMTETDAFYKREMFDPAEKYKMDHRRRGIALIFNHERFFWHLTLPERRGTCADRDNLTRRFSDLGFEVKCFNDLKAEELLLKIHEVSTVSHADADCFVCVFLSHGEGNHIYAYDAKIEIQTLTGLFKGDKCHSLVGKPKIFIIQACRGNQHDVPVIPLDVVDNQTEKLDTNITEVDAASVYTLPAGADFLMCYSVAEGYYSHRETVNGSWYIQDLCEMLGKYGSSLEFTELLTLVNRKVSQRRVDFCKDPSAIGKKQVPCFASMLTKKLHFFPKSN

For `CCc1cc(C(=O)Nc2nc(-c3ccccn3)cs2)sc1C`, the IC50 [1] was > 79 µM (inactive), the AC50 [2] was 103 µM (active) and the CC50 [3] was 32 µM (active).
For `C[C@@H](NC(=O)c1ncn2c1c(O)nc1ccc(Br)cc12)c1ccccc1`, the IC50 [4] was 25 µM (inactive).
With `CC1=C(C(=O)NC(C)c2ccc3c(c2)OCCO3)C2(CCC(C)CC2)OC1=O` (centres undefined) the IC50 [5] was 12 µM (active).
For `O=C(O)c1cc(-c2ccc(/C=N/N3C(=O)C4C5C=CC(C6CC56)C4C3=O)o2)ccc1Cl` (centres undefined), the IC50 [6] was 122 µM (inactive) and the IC50 [7] was 90.7 µM (active).
In the case of `Cc1nc2ncnn2c(N2CCN(C(=O)c3ccco3)CC2)c1Cc1ccccc1`, the EC50 [8] is reported as 4.97 µM (active) and the EC50 [9] is reported as 2.14 µM (active).
In the case of `Cc1ccccc1C(=O)N1CCN(c2ccc(NC(=O)c3cccc(OC(C)C)c3)cc2)CC1`, the IC50 [10] is reported as 39.6 µM (inactive) and the IC50 [11] is reported as > 79 µM (inactive).
For `CCc1ccc(C=C2SC(=S)N(CCCC(=O)Nc3ccc(C(=O)O)cc3)C2=O)cc1`, the IC50 [12] was 80 µM (inactive).
In the case of `CC(C)Nc1ccc(Nc2ccccc2)cc1`, the AC50 [13] is reported as 15.8 µM (inconclusive), the AC50 [14] is reported as 127 µM (active) and the IC50 [15] is reported as > 80 µM (inactive). For the same molecule, the IC50 [16] was 19.2 µM (active), the CC50 [17] was 26.2 µM (active) and the AC50 [18] was 6.94 µM (active). The EC50 [19] was > 60 µM (not active), the IC50 [20] was 9.01 µM (active) and the EC50 [21] was 2.52 µM (active). The IC50 [22] was 58 µM (active), the AC50 [23] was 44.7 µM (inconclusive) and the AC50 [24] was 25.1 µM (inconclusive). The EC50 [25] was 76.4 µM (active).
In the case of `O=C(Nc1cccc2c(=O)[nH][nH]c(=O)c12)c1ccc([N+](=O)[O-])cc1`, the IC50 [26] is reported as 14.2 µM (active), the IC50 [27] is reported as 4.92 µM (active) and the IC50 [28] is reported as 3.01 µM (active). The AC50 [29] was 2.58 µM (active).
